Data published in US11377427B2, “Triazoles for regulating intracellular calcium homeostasis” (UNIVERSIDAD DEL PAIS VASCO, priority 2016, dated 2022).

Experiments:
[1] = system: mdx mice; assay: Muscle degeneration/regeneration: percentage of central nuclei in muscle cryosections of mdx mice; assay type: in vivo, mouse; conditions: 5-week treatment of mdx mice; 0.25 mg/mL in drinking water; FIG. 5
Experimental: After concluding the 5-week treatment, the tibialis anterior muscle was obtained and processed for subsequent biochemical and immunohistological analysis to determine the degree of muscle damage. Cell-death derived regeneration was determined in muscle cryosections by means of quantifying the percentage of central nuclei using standard immunofluorescence techniques for detecting collagen IV and cell nuclei.

[2] = system: human control myotubes LHCN-M2; assay: In vitro toxicity in human myotubes, CytoTox 96 colorimetric assay; assay type: cell-based; conditions: concentrations between 10 nM and 2 mM; 24 hours of incubation; FIG. 1
Experimental: These assays were carried out in human control myotubes LHCN-M2 after 14 days in differentiation medium. To determine the toxicity of the different analyzed compounds, particularly AHK1 and AHK2 according to the invention, these compounds were added to the culture medium for 24 hours at 37° C. at different concentrations (0-2 mM). For comparison purposes, the same assay was performed by adding reference compound S-107. Cell viability was determined by means of Cytotox 96 (Promega) colorimetric assay following instructions in the manual.

[3] = system: tibialis anterior muscle of mdx mice; assay: Gene expression pattern of tibialis anterior muscle of mdx mice (RT Profiler PCR Array); assay type: in vivo, mouse
Experimental: In turn, the biochemical analysis of the tibialis anterior muscle was performed by means of RNA extraction and expression pattern analysis in control mice, mdx mice and mice subjected to different treatments. To that end, the […] skeletal muscle, myogenesis and myopathy RT Profiler PCR Array (PAHS-099Z, QIAGEN) was used, using cDNA mixtures of at least 3 mice per group. The expression profile of 84 genes involved in physiopathological mechanisms of the skeletal muscle was thus analyzed. The experiments were conducted in 7300 Real-Time PCR equipment (Applied Biosystems) and the results obtained were analyzed using QIAGEN online software (http://www.sabiosciences.com/dataanalysis.php).

[4] = target: T1, RyR1-calstabin1 interaction (Homo sapiens, UniProt P21817+P62942); assay: RyR1-calstabin1 interaction by in situ PLA in human myotubes under SIN1 nitro-oxidative stress; assay type: cell-based; conditions: pre-treated 12 hours at 150 nM; SIN1 5 mM 30 minutes; FIG. 3
T1 construct: endogenous in cells; host or cells: LHCN-M2 human myotubes (differentiated for 9 days)
T1 sequence (P21817 whole entry): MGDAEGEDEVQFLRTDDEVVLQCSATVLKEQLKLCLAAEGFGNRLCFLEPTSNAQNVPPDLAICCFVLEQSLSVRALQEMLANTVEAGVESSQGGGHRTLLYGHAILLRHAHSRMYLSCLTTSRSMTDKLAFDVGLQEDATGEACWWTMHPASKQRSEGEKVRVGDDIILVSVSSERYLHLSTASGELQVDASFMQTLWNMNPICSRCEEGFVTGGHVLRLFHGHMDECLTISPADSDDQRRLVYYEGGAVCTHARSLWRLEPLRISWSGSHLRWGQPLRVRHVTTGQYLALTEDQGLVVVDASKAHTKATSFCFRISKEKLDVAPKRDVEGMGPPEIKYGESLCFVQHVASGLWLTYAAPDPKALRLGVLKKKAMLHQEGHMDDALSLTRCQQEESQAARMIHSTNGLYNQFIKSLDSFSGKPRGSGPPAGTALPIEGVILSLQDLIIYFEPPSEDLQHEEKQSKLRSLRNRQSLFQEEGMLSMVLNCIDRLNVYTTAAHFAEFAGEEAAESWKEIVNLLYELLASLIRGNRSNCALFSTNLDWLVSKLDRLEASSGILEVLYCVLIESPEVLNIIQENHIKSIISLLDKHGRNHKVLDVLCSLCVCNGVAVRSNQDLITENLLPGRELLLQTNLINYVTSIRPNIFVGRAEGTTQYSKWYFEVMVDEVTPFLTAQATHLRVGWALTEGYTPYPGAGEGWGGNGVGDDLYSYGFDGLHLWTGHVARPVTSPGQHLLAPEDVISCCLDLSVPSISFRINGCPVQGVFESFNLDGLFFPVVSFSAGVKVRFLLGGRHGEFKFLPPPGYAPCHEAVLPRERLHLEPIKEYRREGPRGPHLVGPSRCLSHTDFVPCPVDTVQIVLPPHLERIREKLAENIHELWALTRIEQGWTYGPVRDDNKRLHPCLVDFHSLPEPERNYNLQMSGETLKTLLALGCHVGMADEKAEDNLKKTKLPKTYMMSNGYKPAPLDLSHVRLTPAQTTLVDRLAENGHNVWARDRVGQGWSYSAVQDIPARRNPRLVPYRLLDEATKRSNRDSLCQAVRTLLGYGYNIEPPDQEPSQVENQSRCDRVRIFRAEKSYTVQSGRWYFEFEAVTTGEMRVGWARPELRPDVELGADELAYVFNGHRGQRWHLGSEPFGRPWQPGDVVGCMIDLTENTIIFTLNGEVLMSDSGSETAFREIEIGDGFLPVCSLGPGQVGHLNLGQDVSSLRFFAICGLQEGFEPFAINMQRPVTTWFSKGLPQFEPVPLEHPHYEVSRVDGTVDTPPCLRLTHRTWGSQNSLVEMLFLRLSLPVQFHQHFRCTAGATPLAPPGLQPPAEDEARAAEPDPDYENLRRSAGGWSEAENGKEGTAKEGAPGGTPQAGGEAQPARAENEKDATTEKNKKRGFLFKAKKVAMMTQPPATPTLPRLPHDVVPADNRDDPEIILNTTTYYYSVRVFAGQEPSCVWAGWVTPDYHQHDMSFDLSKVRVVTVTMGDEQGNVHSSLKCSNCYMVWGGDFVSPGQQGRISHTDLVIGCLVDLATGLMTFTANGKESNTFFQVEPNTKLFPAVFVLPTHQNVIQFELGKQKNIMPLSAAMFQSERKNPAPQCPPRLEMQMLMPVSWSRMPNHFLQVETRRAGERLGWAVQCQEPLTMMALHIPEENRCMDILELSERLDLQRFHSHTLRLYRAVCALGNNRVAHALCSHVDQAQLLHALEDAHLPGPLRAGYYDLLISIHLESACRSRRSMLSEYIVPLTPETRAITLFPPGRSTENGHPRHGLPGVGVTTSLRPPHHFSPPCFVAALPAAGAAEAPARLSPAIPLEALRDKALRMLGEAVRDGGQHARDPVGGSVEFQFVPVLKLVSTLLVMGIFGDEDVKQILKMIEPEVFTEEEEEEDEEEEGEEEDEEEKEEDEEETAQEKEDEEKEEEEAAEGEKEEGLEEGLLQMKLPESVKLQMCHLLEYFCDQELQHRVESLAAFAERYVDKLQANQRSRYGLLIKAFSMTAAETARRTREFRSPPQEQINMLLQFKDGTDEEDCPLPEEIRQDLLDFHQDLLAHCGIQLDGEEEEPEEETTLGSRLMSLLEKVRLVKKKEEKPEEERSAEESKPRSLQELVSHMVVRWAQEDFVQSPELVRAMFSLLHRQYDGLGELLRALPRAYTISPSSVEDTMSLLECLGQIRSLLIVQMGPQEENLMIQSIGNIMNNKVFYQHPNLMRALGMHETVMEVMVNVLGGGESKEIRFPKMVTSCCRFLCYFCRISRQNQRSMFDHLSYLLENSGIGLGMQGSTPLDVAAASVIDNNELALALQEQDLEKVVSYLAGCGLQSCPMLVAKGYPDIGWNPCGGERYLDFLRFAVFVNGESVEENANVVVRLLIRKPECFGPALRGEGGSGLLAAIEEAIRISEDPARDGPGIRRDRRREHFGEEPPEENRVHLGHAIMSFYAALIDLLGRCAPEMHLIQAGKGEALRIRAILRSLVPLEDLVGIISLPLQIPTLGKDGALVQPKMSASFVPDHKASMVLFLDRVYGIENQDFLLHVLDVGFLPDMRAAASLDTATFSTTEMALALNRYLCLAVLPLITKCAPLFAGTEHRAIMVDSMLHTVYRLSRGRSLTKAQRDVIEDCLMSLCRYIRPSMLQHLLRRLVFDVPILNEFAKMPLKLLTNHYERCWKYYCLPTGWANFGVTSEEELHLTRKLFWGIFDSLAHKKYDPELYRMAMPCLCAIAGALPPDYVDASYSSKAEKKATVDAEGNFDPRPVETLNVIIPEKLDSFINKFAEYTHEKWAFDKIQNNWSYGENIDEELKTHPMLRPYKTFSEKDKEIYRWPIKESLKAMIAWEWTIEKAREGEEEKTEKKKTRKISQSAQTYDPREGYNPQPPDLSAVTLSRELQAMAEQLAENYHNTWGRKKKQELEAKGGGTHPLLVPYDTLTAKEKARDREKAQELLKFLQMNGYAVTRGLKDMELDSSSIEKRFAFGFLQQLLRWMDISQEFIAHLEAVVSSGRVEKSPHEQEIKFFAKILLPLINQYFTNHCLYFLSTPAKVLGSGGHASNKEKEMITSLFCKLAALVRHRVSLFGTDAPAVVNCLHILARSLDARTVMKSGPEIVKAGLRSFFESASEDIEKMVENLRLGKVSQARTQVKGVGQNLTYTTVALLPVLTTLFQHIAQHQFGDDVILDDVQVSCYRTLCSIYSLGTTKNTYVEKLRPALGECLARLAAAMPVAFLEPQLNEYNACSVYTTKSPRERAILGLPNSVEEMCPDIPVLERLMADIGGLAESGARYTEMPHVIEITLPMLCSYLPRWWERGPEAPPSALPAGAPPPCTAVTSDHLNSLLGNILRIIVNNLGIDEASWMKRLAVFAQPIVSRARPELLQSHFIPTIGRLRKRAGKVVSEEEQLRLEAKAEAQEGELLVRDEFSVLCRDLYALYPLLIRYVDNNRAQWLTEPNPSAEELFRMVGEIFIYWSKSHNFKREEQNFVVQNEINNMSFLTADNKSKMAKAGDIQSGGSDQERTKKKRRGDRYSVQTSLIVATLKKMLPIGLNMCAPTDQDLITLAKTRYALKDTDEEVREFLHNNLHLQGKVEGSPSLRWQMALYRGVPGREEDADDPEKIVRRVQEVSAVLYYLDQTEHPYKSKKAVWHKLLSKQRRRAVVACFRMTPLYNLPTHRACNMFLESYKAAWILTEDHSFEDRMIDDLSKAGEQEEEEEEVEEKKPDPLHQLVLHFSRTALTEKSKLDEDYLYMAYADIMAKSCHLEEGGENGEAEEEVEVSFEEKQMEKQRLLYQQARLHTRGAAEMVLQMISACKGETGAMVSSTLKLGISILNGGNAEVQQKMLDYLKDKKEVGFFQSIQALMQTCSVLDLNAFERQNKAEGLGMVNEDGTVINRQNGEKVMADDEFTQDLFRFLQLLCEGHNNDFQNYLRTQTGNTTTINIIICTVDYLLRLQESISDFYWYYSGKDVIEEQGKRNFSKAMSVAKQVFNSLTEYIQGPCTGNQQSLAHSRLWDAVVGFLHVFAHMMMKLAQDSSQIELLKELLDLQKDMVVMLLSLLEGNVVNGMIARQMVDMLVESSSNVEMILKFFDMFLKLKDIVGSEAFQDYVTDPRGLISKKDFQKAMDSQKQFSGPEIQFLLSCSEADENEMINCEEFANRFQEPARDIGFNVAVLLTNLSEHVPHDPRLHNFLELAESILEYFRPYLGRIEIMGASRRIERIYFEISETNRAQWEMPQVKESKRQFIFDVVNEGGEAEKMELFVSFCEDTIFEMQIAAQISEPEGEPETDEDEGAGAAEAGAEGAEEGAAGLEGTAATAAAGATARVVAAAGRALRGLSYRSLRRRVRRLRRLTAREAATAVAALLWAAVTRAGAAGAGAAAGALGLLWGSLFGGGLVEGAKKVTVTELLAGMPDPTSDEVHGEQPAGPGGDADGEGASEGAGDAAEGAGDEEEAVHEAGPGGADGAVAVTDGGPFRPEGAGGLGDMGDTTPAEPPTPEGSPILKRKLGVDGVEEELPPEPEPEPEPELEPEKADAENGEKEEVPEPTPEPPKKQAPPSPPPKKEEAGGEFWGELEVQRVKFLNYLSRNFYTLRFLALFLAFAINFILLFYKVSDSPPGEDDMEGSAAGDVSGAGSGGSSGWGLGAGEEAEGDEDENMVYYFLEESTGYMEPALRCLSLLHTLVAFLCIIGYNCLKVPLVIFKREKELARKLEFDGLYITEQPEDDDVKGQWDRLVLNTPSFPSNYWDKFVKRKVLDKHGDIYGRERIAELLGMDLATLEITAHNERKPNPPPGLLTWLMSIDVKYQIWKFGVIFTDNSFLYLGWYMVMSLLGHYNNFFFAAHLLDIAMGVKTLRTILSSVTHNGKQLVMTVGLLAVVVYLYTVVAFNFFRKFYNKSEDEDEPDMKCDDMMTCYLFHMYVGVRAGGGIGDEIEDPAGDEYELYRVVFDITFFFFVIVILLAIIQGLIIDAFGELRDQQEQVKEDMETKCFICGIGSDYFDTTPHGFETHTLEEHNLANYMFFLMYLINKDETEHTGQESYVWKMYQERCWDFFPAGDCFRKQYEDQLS
T1 sequence (P62942 2-108 limits assumed): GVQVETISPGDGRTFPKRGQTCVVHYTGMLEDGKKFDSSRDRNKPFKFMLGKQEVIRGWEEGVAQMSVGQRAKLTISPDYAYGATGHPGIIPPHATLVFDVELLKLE
Experimental: This assay was carried out in human control myotubes LHCN-M2 after 9 days in differentiation medium. Said myotubes were pre-treated for 12 hours with compounds AHK1 and AHK2 at a concentration of 150 nM. After treatment, the myotubes were subjected to peroxynitrite-induced nitro-oxidative stress by means of the addition of SIN1 (5 mM) for 30 minutes. RyR1-calstabin colocalization was analyzed by means of the in situ proximity ligation technique (in situ PLA) for which Sigma's Duolink II Network Fluorescence Kit and RyR1- and calstabin 1-specific antibodies were used. This technique allows detecting the exact location of two antigens located at a distance less than 40 nm from one another. To determine RyR1-calstabin-1 colocalization, 3 photographs were quantified for each condition with about 9 myotubes per field, using Image J computer software (http://rsb.info.nih.gov/ij/download.html). The colocalization area in each image was normalized to the myosin expression area, which was determined by means of immunofluorescence with a fluorescein-conjugated specific antibody.

[5] = system: fibers isolated from mouse flexor digitorum brevis muscle (dystrophic MDX fibers); assay: Baseline intracellular calcium levels in mouse muscle fibers (Fura 2-AM); assay type: cell-based; conditions: 150 nM, overnight treatment; FIG. 2
Experimental: Fibers isolated from mouse flexor digitorum brevis muscle were cultured overnight in the presence or absence of compounds AHK1 and AHK2 at a concentration of 150 nM. Baseline intracellular calcium levels were evaluated by means of incubating the fibers with Fura 2-AM ratiometric fluorochrome (4 μM) and pluronic acid (0.02%) for 30 minutes at 37° C., in the culture medium. The fibers were viewed with a high-resolution digital camera and intracellular [Ca^2+] was estimated by means of a 340 nm/380 nm excitation ratio.

[6] = system: mdx mice; assay: Grip strength of dystrophic mdx mice; assay type: in vivo, mouse; conditions: 0.25 mg/mL in drinking water, one-month old mdx mice
Experimental: One-month old male dystrophic mdx mice supplied by Jackson Laboratory (https://www.jax.org/strain/001801) were used. The biological assays for measuring the effect of the Ahulken (AHK) compounds on muscle function were performed with one-month old mice, whereas the in vivo assays for determining the effect on the heart and CNS were performed with four-month old mice. The one-month old mice were treated with compound AHK1 or compound AHK2 for 5 weeks, where said compounds were administered in drinking water at a concentration of 0.25 mg/mL. The muscle strength of the front paws was measured every week using a grip strength meter and the obtained value was normalized by the body weight of the animal. To that end, the indications described in the TREAT-NMD Neuromuscular Network protocol (http://www.treat-nmd.eu/downloads/file/sops/dmd/MDX/DMD_M.2.2.001.pdf) were followed.

SMILES: COc1cccc(SCc2cn(CC(=O)O)nn2)c1 [AHK1, 1-carboxymethyl-4-[3-(methoxy)phenylthiomethyl]-1H-1,2,3-triazole]
- percentage of central nuclei [1]: significantly reduced
- in vitro acute toxicity against human myotubes [2]: do not show in vitro acute toxicity
- Ratio of change vs. control, Akt1 ([3]; gene Akt1, MDX + AHK1, 5 weeks, tibialis anterior, untreated MDX 2.63): 1.42
- Ratio of change vs. control, Bcl2 ([3]; gene Bcl2, MDX + AHK1, 5 weeks, tibialis anterior, untreated MDX 1.94): 1.05
- Ratio of change vs. control, Bmp4 ([3]; gene Bmp4, MDX + AHK1, 5 weeks, tibialis anterior, untreated MDX 1.93): 2.08
- Ratio of change vs. control, Capn2 ([3]; gene Capn2, MDX + AHK1, 5 weeks, tibialis anterior, untreated MDX 2.90): 1.75
- Ratio of change vs. control, Casp3 ([3]; gene Casp3, MDX + AHK1, 5 weeks, tibialis anterior, untreated MDX 10.28): 5.27
- Ratio of change vs. control, Cast ([3]; gene Cast, MDX + AHK1, 5 weeks, tibialis anterior, untreated MDX 1.86): 1.49
- Ratio of change vs. control, Cav3 ([3]; gene Cav3, MDX + AHK1, 5 weeks, tibialis anterior, untreated MDX 3.28): 1.68
- Ratio of change vs. control, Cryab ([3]; gene Cryab, MDX + AHK1, 5 weeks, tibialis anterior, untreated MDX 3.08): 1.50
- Ratio of change vs. control, Ctnnb1 ([3]; gene Ctnnb1, MDX + AHK1, 5 weeks, tibialis anterior, untreated MDX 1.79): 1.27
- Ratio of change vs. control, Dag1 ([3]; gene Dag1, MDX + AHK1, 5 weeks, tibialis anterior, untreated MDX 2.27): 1.23
- Ratio of change vs. control, Des ([3]; gene Des, MDX + AHK1, 5 weeks, tibialis anterior, untreated MDX 2.14): 1.53
- Ratio of change vs. control, Dysf ([3]; gene Dysf, MDX + AHK1, 5 weeks, tibialis anterior, untreated MDX 2.15): 1.28
- Ratio of change vs. control, Foxo3 ([3]; gene Foxo3, MDX + AHK1, 5 weeks, tibialis anterior, untreated MDX 1.76): 1.14
- Ratio of change vs. control, Igf1 ([3]; gene Igf1, MDX + AHK1, 5 weeks, tibialis anterior, untreated MDX 2.87): 2.07
- Ratio of change vs. control, Igf2 ([3]; gene Igf2, MDX + AHK1, 5 weeks, tibialis anterior, untreated MDX 22.31): 9.78
- Ratio of change vs. control, Igfbp3 ([3]; gene Igfbp3, MDX + AHK1, 5 weeks, tibialis anterior, untreated MDX 1.77): 1.34
- Ratio of change vs. control, Igfbp5 ([3]; gene Igfbp5, MDX + AHK1, 5 weeks, tibialis anterior, untreated MDX 2.52): 1.43
- Ratio of change vs. control, Ikbkb ([3]; gene Ikbkb, MDX + AHK1, 5 weeks, tibialis anterior, untreated MDX 2.72): 1.62
- Ratio of change vs. control, Il1b ([3]; gene Il1b, MDX + AHK1, 5 weeks, tibialis anterior, untreated MDX 17.77): 2.82
- Ratio of change vs. control, Il6 ([3]; gene Il6, MDX + AHK1, 5 weeks, tibialis anterior, untreated MDX 32.72): 9.76
- Ratio of change vs. control, Lmna ([3]; gene Lmna, MDX + AHK1, 5 weeks, tibialis anterior, untreated MDX 5.29): 2.52
- Ratio of change vs. control, Mapk3 ([3]; gene Mapk3, MDX + AHK1, 5 weeks, tibialis anterior, untreated MDX 2.61): 1.69
- Ratio of change vs. control, Mmp9 ([3]; gene Mmp9, MDX + AHK1, 5 weeks, tibialis anterior, untreated MDX 4.51): 2.01
- Ratio of change vs. control, Musk ([3]; gene Musk, MDX + AHK1, 5 weeks, tibialis anterior, untreated MDX 3.51): 2.00
- Ratio of change vs. control, Myf5 ([3]; gene Myf5, MDX + AHK1, 5 weeks, tibialis anterior, untreated MDX 3.40): 2.13
- Ratio of change vs. control, Myod1 ([3]; gene Myod1, MDX + AHK1, 5 weeks, tibialis anterior, untreated MDX 4.27): 1.28
- Ratio of change vs. control, Myog ([3]; gene Myog, MDX + AHK1, 5 weeks, tibialis anterior, untreated MDX 17.36): 3.24
- Ratio of change vs. control, Nfkb1 ([3]; gene Nfkb1, MDX + AHK1, 5 weeks, tibialis anterior, untreated MDX 2.45): 1.67
- Ratio of change vs. control, Pax3 ([3]; gene Pax3, MDX + AHK1, 5 weeks, tibialis anterior, untreated MDX 2.16): 2.48
- Ratio of change vs. control, Pax7 ([3]; gene Pax7, MDX + AHK1, 5 weeks, tibialis anterior, untreated MDX 3.82): 2.55
- Ratio of change vs. control, Ppargc1b ([3]; gene Ppargc1b, MDX + AHK1, 5 weeks, tibialis anterior, untreated MDX 1.77): 1.23
- Ratio of change vs. control, Prkaa1 ([3]; gene Prkaa1, MDX + AHK1, 5 weeks, tibialis anterior, untreated MDX 2.33): 1.55
- Ratio of change vs. control, Prkag3 ([3]; gene Prkag3, MDX + AHK1, 5 weeks, tibialis anterior, untreated MDX 2.52): 2.68
- Ratio of change vs. control, Rhoa ([3]; gene Rhoa, MDX + AHK1, 5 weeks, tibialis anterior, untreated MDX 2.30): 1.80
- Ratio of change vs. control, Rps6kb1 ([3]; gene Rps6kb1, MDX + AHK1, 5 weeks, tibialis anterior, untreated MDX 1.77): 1.25
- Ratio of change vs. control, Tgfb1 ([3]; gene Tgfb1, MDX + AHK1, 5 weeks, tibialis anterior, untreated MDX 6.51): 3.61
- Ratio of change vs. control, Tnf ([3]; gene Tnf, MDX + AHK1, 5 weeks, tibialis anterior, untreated MDX 15.01): 10.27
- Ratio of change vs. control, Tnnc1 ([3]; gene Tnnc1, MDX + AHK1, 5 weeks, tibialis anterior, untreated MDX 25.00): 4.53
- Ratio of change vs. control, Tnnt1 ([3]; gene Tnnt1, MDX + AHK1, 5 weeks, tibialis anterior, untreated MDX 12.09): 3.37
- Ratio of change vs. control, Utrn ([3]; gene Utrn, MDX + AHK1, 5 weeks, tibialis anterior, untreated MDX 2.03): 1.35
- number of genes the expression of which was increased with respect to control (at least 1.75-fold) ([3]; mdx mice treated 5 weeks, 84 genes analyzed, 40 in untreated mdx): 20
- dissociation of the RyR1-Calst1 complex in the presence of SIN1 [4]: partially prevented
- intracellular calcium levels at rest in MDX fibers [5]: brought intracellular calcium levels back to the control levels
- grip strength compared to untreated littermates ([6]; after 2 weeks of treatment): increased significantly
- increase of muscle strength ([6]; after 5 weeks of treatment, FIG. 4): 20%
